Test results: PMC13539321 (Journal of Advanced Research, 2025)

Molecular target: Mushroom TYR (EC 1.14.18.1) (Agaricus bisporus, UniProt C7FF04)
Experiment: biochemical
Conditions: IC50 value ± SD
[1] = L-dopa, substrate L-dopa (diphenolase), n = 3, screening of de novo generated compounds (Table 1)
[2] = L-tyrosine, substrate L-tyrosine (monophenolase), n = 3, screening of de novo generated compounds (Table 1)

Sequence of Mushroom TYR (EC 1.14.18.1) (C7FF04 1-392 limits assumed): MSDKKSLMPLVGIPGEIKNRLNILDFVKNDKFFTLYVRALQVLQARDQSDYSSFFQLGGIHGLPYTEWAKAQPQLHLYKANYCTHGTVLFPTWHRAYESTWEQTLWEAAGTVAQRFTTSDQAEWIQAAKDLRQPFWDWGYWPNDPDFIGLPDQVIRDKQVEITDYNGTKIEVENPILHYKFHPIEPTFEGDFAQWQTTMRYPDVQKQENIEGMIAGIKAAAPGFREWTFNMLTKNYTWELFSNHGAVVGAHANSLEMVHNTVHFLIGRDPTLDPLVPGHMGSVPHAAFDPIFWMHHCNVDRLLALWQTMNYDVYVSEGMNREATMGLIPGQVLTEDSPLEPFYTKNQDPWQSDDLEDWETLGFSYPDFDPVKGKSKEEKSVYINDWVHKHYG

Row | IC50 (L-dopa) | IC50 (L-tyrosine) | IC50 [1] | IC50 [2] | Compound
1 | 0.02 ± 0.002 µM | 0.023 ± 0.002 µM |  |  | COc1ccc(CN2CCN(C(=O)/C=C/c3ccc(O)cc3O)CC2)cc1 [Compound V-26, (E)-3-(2,4-dihydroxyphenyl)-1-(4-(4-methoxybenzyl)piperazin-1-yl)prop-2-en-1-one]
2 | > 800 µM | > 300 µM |  |  | O=C(CCc1cccc(O)c1)N1CCN(Cc2cccs2)CC1 [Compound V-18, 3-(3-hydroxyphenyl)-1-(4-(thiophen-2-ylmethyl)piperazin-1-yl)propan-1-one]
3 | 0.021 ± 0.002 µM | 0.024 ± 0.002 µM |  |  | O=C(/C=C/c1ccc(O)cc1O)N1CCN(Cc2ccc(Cl)cc2)CC1 [Compound V-32, (E)-1-(4-(4-chlorobenzyl)piperazin-1-yl)-3-(2,4-dihydroxyphenyl)prop-2-en-1-one]
4 |  |  | > 800 µM | > 800 µM | O=C(NCc1ccc(F)cc1)c1cc(O)nc2ccccc12 [VI, N-(4-fluorobenzyl)-2-hydroxyquinoline-4-carboxamide]
5 |  |  | > 800 µM | > 800 µM | NC(=O)[C@H](Cc1ccccc1)NC(=O)c1cccc(O)c1 [III, (S)-N-(1-amino-1-oxo-3-phenylpropan-2-yl)-3-hydroxybenzamide]
6 | > 800 µM | 298 ± 16.6 µM |  |  | O=C(CCc1cccc(O)c1)NCCNCc1ccc(F)cc1 [Compound V-8, N-(2-((4-fluorobenzyl)amino)ethyl)-3-(3-hydroxyphenyl)propanamide]
7 | 0.147 ± 0.013 µM | 0.165 ± 0.008 µM |  |  | COc1ccc(CN2CCN(C(=O)CCc3ccc(O)cc3O)CC2)cc1 [Compound V-25, 3-(2,4-dihydroxyphenyl)-1-(4-(4-methoxybenzyl)piperazin-1-yl)propan-1-one]
8 | 19 ± 2.2 µM | 7.4 ± 0.4 µM |  |  | O=C(CCc1cccc(O)c1)N1CCN(Cc2cccc(Cl)c2)CC1 [Compound V-10, 1-(4-(3-chlorobenzyl)piperazin-1-yl)-3-(3-hydroxyphenyl)propan-1-one]
9 | 140 ± 15.6 µM | 41.8 ± 3.2 µM |  |  | O=C(CCc1cccc(O)c1)N1CCN(C/C=C/c2ccc(F)cc2)CC1 [Compound V-15, (E)-1-(4-(3-(4-fluorophenyl)allyl)piperazin-1-yl)-3-(3-hydroxyphenyl)propan-1-one]
10 | 0.085 ± 0.016 µM | 0.122 ± 0.008 µM |  |  | O=C(/C=C/c1ccc(O)cc1O)N1CCN(Cc2ccc(F)cc2)CC1 [Compound V-22, (E)-3-(2,4-dihydroxyphenyl)-1-(4-(4-fluorobenzyl)piperazin-1-yl)prop-2-en-1-one]

Further lines, the molecule ahead of its results:

Row | Compound | IC50 (L-dopa) | IC50 (L-tyrosine) | IC50 [1] | IC50 [2]
11 | O=C(CCc1cccc(O)c1)N1CCN(Cc2ccccn2)CC1 [Compound V-19, 3-(3-hydroxyphenyl)-1-(4-(pyridin-2-ylmethyl)piperazin-1-yl)propan-1-one] | > 800 µM | > 600 µM |  | 
12 | O=C(CCc1cccc(O)c1)NCCCNCc1ccc(F)cc1 [Compound V-9, N-(3-((4-fluorobenzyl)amino)propyl)-3-(3-hydroxyphenyl)propanamide] | > 800 µM | 328 ± 4.9 µM |  | 
13 | Cc1ccc(CN2CCN(C(=O)CCc3ccc(O)cc3O)CC2)cc1 [Compound V-23, 3-(2,4-dihydroxyphenyl)-1-(4-(4-methylbenzyl)piperazin-1-yl)propan-1-one] | 0.134 ± 0.008 µM | 0.183 ± 0.013 µM |  | 
14 | O=C(CCc1cccc(O)c1)N1CCN(Cc2cccc(F)c2)CC1 [Compound V-2, 1-(4-(3-fluorobenzyl)piperazin-1-yl)-3-(3-hydroxyphenyl)propan-1-one] | > 400 µM | 295 ± 24.2 µM |  | 
15 | O=C(O)c1ccc(CN2CCC(C(=O)c3ccccc3)CC2)cc1 [IX, 4-((4-benzoylpiperidin-1-yl)methyl)benzoic acid] |  |  | > 800 µM | > 800 µM
16 | O=C(/C=C/c1cccc(O)c1)N1CCN(Cc2ccc(F)cc2)CC1 [Compound V-5, (E)-1-(4-(4-fluorobenzyl)piperazin-1-yl)-3-(3-hydroxyphenyl)prop-2-en-1-one] | > 200 µM | 148 ± 25.4 µM |  | 
17 | O=C(CCc1cc(O)ccc1O)N1CCN(Cc2ccc(F)cc2)CC1 [Compound V-21, 3-(2,5-dihydroxyphenyl)-1-(4-(4-fluorobenzyl)piperazin-1-yl)propan-1-one] | 21 ± 0.82 µM | 8.2 ± 0.4 µM |  | 
18 | N#Cc1ccc(CN2CCN(C(=O)CCc3ccc(O)cc3O)CC2)cc1 [Compound V-33, 4-((4-(3-(2,4-dihydroxyphenyl)propanoyl)piperazin-1-yl)methyl)benzonitrile] | 0.237 ± 0.011 µM | 0.299 ± 0.007 µM |  | 
19 | COc1cc(C(=O)N[C@@H](Cc2ccccc2)C(N)=O)ccc1O [Compound I, (S)-N-(1-amino-1-oxo-3-phenylpropan-2-yl)-4-hydroxy-3-methoxybenzamide] |  |  | > 800 µM | > 800 µM
20 | Cc1nc2cc(C(=O)N3CCCN(Cc4ccccc4)CC3)ccc2[nH]1 [XIV, (4-benzyl-1,4-diazepan-1-yl)(2-methyl-1H-benzo[d]imidazol-5-yl)methanone] |  |  | > 800 µM | 449 ± 36.1 µM
21 | N#Cc1ccc(CN2CCN(C(=O)/C=C/c3ccc(O)cc3O)CC2)cc1 [Compound V-34, (E)-4-((4-(3-(2,4-dihydroxyphenyl)acryloyl)piperazin-1-yl)methyl)benzonitrile] | 0.032 ± 0.004 µM | 0.041 ± 0.005 µM |  | 
22 | O=C(Oc1ccc(N2CCNCC2)cc1)c1cnc2ccccc2c1 [XVI, 4-(piperazin-1-yl)phenyl quinoline-3-carboxylate] |  |  | 138 ± 5.1 µM | 16 ± 1.6 µM
23 | O=C(CCc1cccc(O)c1)N1CCN(Cc2ccccc2F)CC1 [Compound V-1, 1-(4-(2-fluorobenzyl)piperazin-1-yl)-3-(3-hydroxyphenyl)propan-1-one] | > 800 µM | 204 ± 3.9 µM |  | 
24 | O=C(/C=C/c1ccccc1)N1CCN(c2cccc(O)c2)CC1 [XII, (E)-1-(4-(3-hydroxyphenyl)piperazin-1-yl)-3-phenylprop-2-en-1-one] |  |  | 199 ± 22.7 µM | 35.9 ± 1.2 µM
25 | O=C(CCc1ccccc1O)N1CCN(Cc2ccc(F)cc2)CC1 [Compound V-3, 1-(4-(4-fluorobenzyl)piperazin-1-yl)-3-(2-hydroxyphenyl)propan-1-one] | 66.1 ± 4.6 µM | 60.6 ± 4.5 µM |  | 
26 | O=C(Oc1ccc(N2CCNCC2)cc1)c1cc(O)nc2ccccc12 [XVII, 4-(piperazin-1-yl)phenyl 2-hydroxyquinoline-4-carboxylate] |  |  | 303 ± 47.6 µM | 164 ± 19.8 µM
27 | O=C(CCc1ccc(O)cc1O)N1CCN(Cc2ccc(Cl)cc2)CC1 [Compound V-31, 1-(4-(4-chlorobenzyl)piperazin-1-yl)-3-(2,4-dihydroxyphenyl)propan-1-one] | 0.153 ± 0.011 µM | 0.187 ± 0.003 µM |  | 
28 | O=C(c1cccc(OCc2ccccc2)c1)N1CCN(c2ccc(O)cc2)CC1 [XV, (3-(benzyloxy)phenyl)(4-(4-hydroxyphenyl)piperazin-1-yl)methanone] |  |  | > 800 µM | > 800 µM
29 | O=C(CCc1cccc(O)c1)N1CC2CN(Cc3ccc(F)cc3)CC2C1 (centres unmarked) [Compound V-7, 1-(5-(4-fluorobenzyl)hexahydropyrrolo[3,4-c]pyrrol-2(1H)-yl)-3-(3-hydroxyphenyl)propan-1-one] | 119 ± 5.2 µM | 25.8 ± 1.1 µM |  | 
30 | Cc1ccc(CN2CCN(C(=O)CCc3cccc(O)c3)CC2)cc1 [Compound V-11, 3-(3-hydroxyphenyl)-1-(4-(4-methylbenzyl)piperazin-1-yl)propan-1-one] | > 400 µM | 20.1 ± 0.7 µM |  | 
31 | CCc1ccc(CN2CCN(C(=O)CCc3cccc(O)c3)CC2)cc1 [Compound V-12, 1-(4-(4-ethylbenzyl)piperazin-1-yl)-3-(3-hydroxyphenyl)propan-1-one] | > 800 µM | > 800 µM |  | 
